Patent US20130065818A1, “Arylamide Compounds And Compositions And Uses Thereof” (POLYMEDIX, priority 2006, published 2013)
“And” between values parts separate entries of the source, which are not always exact repeats. Equal entries are not always repeated. “Also recorded” adds a separate entry of the source.

Key:
[1] = Draize ocular toxicity scoring, NZW rabbit ocular toxicity model; type: in vivo; set-up: key to MMTS / Score (Draize total): Draize total score of cornea, iris and conjunctivae; maximum 110; III. B. Chemosis / I. A. Cornea opacity / I. B. Area of cornea involved / II. A. Iris / III. A. Conjunctivae redness / III. C. Discharge: scale not given here
Procedure: The ocular toxicity of several concentrations of Oligomer 2, using the Draize ocular toxicity scoring system, in the NZW rabbit ocular toxicity model was carried out.
(§1) Rabbits were treated in both eyes with (37 μl) topical drops every 30 minutes for 3 hours (7 total doses). One rabbit was treated with Tris-Buffered Saline and served as a negative control. Rabbits were evaluated in a masked fashion for ocular toxicity by an ophthalmologist with specialty training in corneal and external disease. Ocular toxicity was evaluated using the Draize scoring system after treatment on Day 0 and on Day 3 post treatment for any delayed toxicity. (Draize et al., J. Pharmacol. Exp. Ther., 1944, 82, 377-390).
A brief summary of the Draize scoring system for ocular lesions is provided below
Total Maximum Score: 110 represents the sum of all scores obtained for the cornea, iris and conjunctivae.
The ocular toxicity of several formulations of Oligomer 4 with and without farnesol, using the Draize ocular toxicity scoring system, in the NZW rabbit ocular toxicity model was carried out.
as §1, with “external disease 30 minutes after the final dose.” for “external disease.”, “system (see above)” for “system”, “Day 2” for “Day 3”, “toxicity.” for “toxicity. (Draize et al., J. Pharmacol. Exp. Ther., 1944, 82, 377-390).”

[2] = test system: fluoroquinolone-resistant, methicillin-resistant Staphylococcus aureus (K950); experiment: NZW rabbit keratitis model, corneal colony counts; type: in vivo; settings: for Statistical comparison of corneal colony counts (< = significantly fewer colony counts): abraded (removed) epithelium, drops every 15 min
Description: (§2) One purpose of the following experiments was to compare the efficacy of 1% Oligomer 2, 0.5% Oligomer 2, and 5% vancomycin in the treatment of a fluoroquinolone-resistant, methicillin-resistant Staphylococcus aureus infection in the NZW rabbit keratitis model with or without intact corneal epithelia.
Nothing was done to the right eyes.
as §2, with “0.25%” for “1%”, “with and without 0.005% benzalkonium chloride,” for “0.5% Oligomer 2,”, “epithelia. The 0.005% benzalkonium chloride has been added to try to increase the penetration of 0.25% Oligomer 2 through the corneal epithelium.” for “epithelia.”
One purpose of the following experiments was to determine the efficacy of 0.25% Oligomer 4, with and without 200 μM Farnesol, and 200 μM Farnesol in the treatment of a fluoroquinolone-resistant and methicillin-resistant Staphylococcus aureus infection in the NZW rabbit keratitis model with or without intact corneal epithelia. The 200 μM Farnesol has been added to try to increase the efficacy and penetration of 0.25% Oligomer 4 through the corneal epithelium.

[3] = 0.25% Oligomer 4 in TBS, Day 0, per eye
[4] = 0.25% Oligomer 4 in TBS, Day 2, per eye
[5] = 0.25% in Tris Buffered Saline (TBS), Day 0
[6] = 0.25% in Tris Buffered Saline (TBS), Day 2
[7] = 0.5% Oligomer 4 in TBS, Day 0, per eye
[8] = 0.5% Oligomer 4 in TBS, Day 2, per eye
[9] = 0.5% in Tris Buffered Saline (TBS), Day 0
[10] = 0.5% in Tris Buffered Saline (TBS), Day 2

In the case of `N=C(N)NCCCCC(=O)Nc1cc(C(F)(F)F)cc(NC(=O)c2cc(C(=O)Nc3cc(C(F)(F)F)cc(NC(=O)CCCCNC(=N)N)c3SCCN)ncn2)c1SCCN` [Oligomer 2], the “I. A. Cornea opacity” value ([1]; NZW, rabbit, in vivo, 0 day) is reported as 0, the “I. B. Area of cornea involved” value ([1]; NZW, rabbit, in vivo, 0 day) is reported as 0 and the “I. Tot (cornea, A × B × 5)” value ([1]; NZW, rabbit, in vivo, 0 day) is reported as 0. For the same compound, the “I. A. Cornea opacity” value ([1]; NZW, rabbit, in vivo, 3 day) was 0, the “I. B. Area of cornea involved” value ([1]; NZW, rabbit, in vivo, 3 day) was 0 and the “I. Tot (cornea, A × B × 5)” value ([1]; NZW, rabbit, in vivo, 3 day) was 0. The “II. A. Iris” value ([1]; NZW, rabbit, in vivo, 3 day) was 0, the “II. Tot (iris, A × 5)” value ([1]; NZW, rabbit, in vivo, 3 day) was 0 and the “III. A. Conjunctivae redness” value ([1]; NZW, rabbit, in vivo, 3 day) was 0. The “III. B. Chemosis” value ([1]; NZW, rabbit, in vivo, 3 day) was 0, the “III. C. Discharge” value ([1]; NZW, rabbit, in vivo, 3 day) was 0 and the “III. Tot (conjunctivae, (A + B + C) × 2)” value ([1]; NZW, rabbit, in vivo, 3 day) was 0. For the same compound, the “Score (Draize total)” value ([1]; NZW, rabbit, in vivo, 3 day) was 0, the “Dose dependence of ocular toxicity” value ([1]; rabbit, in vivo) was “dose dependent ocular toxicity” and the “Stinging / acute reactions upon instillation” value ([1]; rabbit, in vivo) was “does not sting upon instillation”. The “Statistical comparison of corneal colony counts (< = significantly fewer colony counts)” value ([2]; Ker-1 (Example 9), 19 doses) was “effective”, the “Statistical comparison of corneal colony counts (< = significantly fewer colony counts)” value ([2]; Ker-2 (Example 10), 21 doses) was “effective” and the “Effect of addition of 0.005% benzalkonium chloride (BAK) on penetration through the intact corneal epithelium” value ([2]; Ker-2, 0.25% Oligomer 2) was “did not aid in the penetration”. The “Penetration of the corneal epithelium into the corneal stroma” value ([2]; in vivo) was “does not penetrate the corneal epithelium”.

In the case of `N=C(N)NCCCCC(=O)Nc1cc(C(F)(F)F)cc(NC(=O)c2cc(C(=O)Nc3cc(C(F)(F)F)cc(NC(=O)CCCCNC(=N)N)c3O[C@@H]3CCNC3)ncn2)c1O[C@@H]1CCNC1` [Oligomer 4], the “Classification of eye irritation” value ([1]; 0.25% Oligomer 4 in TBS, Day 0) is reported as “Practically Non-Irritating”, the MMTS ([1]; 0.25% Oligomer 4 in TBS, Day 0) is reported as 1.5 and the MMTS classification symbol ([1]; 0.25% Oligomer 4 in TBS, Day 0) is reported as “PN (0.6-2.5 Practically Non-Irritating)”. For the same compound, the “I. A. Cornea opacity” value [1, 3] was 0, the “I. B. Area of cornea involved” value [1, 3] was 0 and the “I. Tot (cornea, A × B × 5)” value [1, 3] was 0. The “II. A. Iris” value [1, 3] was 0, the “II. Tot (iris, A × 5)” value [1, 3] was 0 and the “III. A. Conjunctivae redness” value [1, 3] was 0. For the same compound, the “III. B. Chemosis” value [1, 3] was 0, the “Classification of eye irritation” value ([1]; 0.25% Oligomer 4 in TBS, Day 2) was “Non-Irritating” and the MMTS ([1]; 0.25% Oligomer 4 in TBS, Day 2) was 0.5. For the same compound, the MMTS classification symbol ([1]; 0.25% Oligomer 4 in TBS, Day 2) was “N (0.0-0.5 Non-Irritating)”, the “I. A. Cornea opacity” value [1, 4] was 0 and the “I. B. Area of cornea involved” value [1, 4] was 0. The “I. Tot (cornea, A × B × 5)” value [1, 4] was 0, the “II. A. Iris” value [1, 4] was 0 and the “II. Tot (iris, A × 5)” value [1, 4] was 0. The “III. A. Conjunctivae redness” value [1, 4] was 0, the “III. B. Chemosis” value [1, 4] was 0 and the MMTS [1, 5] was 1.5. For the same compound, the MMTS classification [1, 5] was “PN (0.6-2.5 Practically Non-Irritating)”, the MMTS [1, 6] was 0.5 and the MMTS classification [1, 6] was “N (0.0-0.5 Non-Irritating)”. The “Classification of eye irritation” value ([1]; 0.5% Oligomer 4 in TBS, Day 0) was “Mildly Irritating”, the MMTS ([1]; 0.5% Oligomer 4 in TBS, Day 0) was 6.5 and the MMTS classification symbol ([1]; 0.5% Oligomer 4 in TBS, Day 0) was “M1 (2.6-15.0 Minimally Irritating)”. For the same compound, the “I. A. Cornea opacity” value [1, 7] was 0, the “I. B. Area of cornea involved” value [1, 7] was 0 and the “I. Tot (cornea, A × B × 5)” value [1, 7] was 0. For the same compound, the “II. A. Iris” value [1, 7] was 0, the “II. Tot (iris, A × 5)” value [1, 7] was 0 and the “III. C. Discharge” value [1, 7] was 2 and 1. The MMTS ([1]; 0.5% Oligomer 4 in TBS, Day 2) was 1.0, the MMTS classification symbol ([1]; 0.5% Oligomer 4 in TBS, Day 2) was “N (0.0-0.5 Non-Irritating)” and the “I. A. Cornea opacity” value [1, 8] was 0. For the same compound, the “I. B. Area of cornea involved” value [1, 8] was 0, the “I. Tot (cornea, A × B × 5)” value [1, 8] was 0 and the “II. A. Iris” value [1, 8] was 0. For the same compound, the “II. Tot (iris, A × 5)” value [1, 8] was 0, the “III. A. Conjunctivae redness” value [1, 8] was 0 and the “III. B. Chemosis” value [1, 8] was 0. The MMTS [1, 9] was 6.5, the MMTS classification [1, 9] was “M1 (2.6-15.0 Minimally Irritating)” and the MMTS [1, 10] was 1.0. For the same compound, the MMTS classification [1, 10] was “N (0.0-0.5 Non-Irritating)”, the “Dose dependence of ocular toxicity” value ([1]; Example 7, 7 topical instillations, every 30 minutes for 3 hours) was “dose dependent ocular toxicity” and the “Effect of addition of 100 μM Farnesol in 1% Propylene Glycol on ocular toxicity” value ([1]; rabbit, in vivo) was “increased the toxicity”. For the same compound, the “Effect of addition of Farnesol on penetration and antibacterial efficacy of Oligomer 4” value ([2]; Ker-4) was “did nothing to promote penetration; also recorded: a trend toward antagonism”, the “Reduction of colony counts compared with the Onset of Therapy Control” value ([2]; Ker-4, corneal epithelium removed) was “effective” and the “Effect of addition of Farnesol on penetration of 0.25% Oligomer 4 through the intact corneal epithelium” value ([2]; in vivo) was “did not appear aid in the penetration”.
